Experiments:
Experiment in all cases: relative viability (nuclei count vs DMSO), 5 days (fraction); higher = more cells survive
Motesanib + Dasatinib = compound: CC1(C)CNc2cc(NC(=O)c3cccnc3NCc3ccncc3)ccc21 [Motesanib] + Cc1nc(Nc2ncc(C(=O)Nc3c(C)cccc3Cl)s2)cc(N2CCN(CCO)CC2)n1 [Dasatinib] (partner 0.075 µM)
Outline: (§1)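 Lung cancer cell lines in 1536-well plates were dosed by pin tool the day after seeding, either with one drug alone or with a fixed anchor-drug dose plus five library-drug doses (not always all listed) in √10 steps. After 5 days, cells were fixed and their nuclei stained in one step (final 0.05% Triton X-100, 1% formaldehyde, 1 ug/ml Hoechst), then counted on 4× images. Relative viability is the nuclei count in treated wells divided by that in vehicle wells. Values are medians of duplicate plates.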

[1] = compound: C[C@@]1(C(=O)Nc2ccc(F)nc2)CCCN1c1nc(Nc2cc(C3CC3)n[nH]2)c2cccn2n1 + CC(=O)Nc1cccc(-n2c(=O)n(C3CC3)c(=O)c3c(Nc4ccc(I)cc4F)n(C)c(=O)c(C)c32)c1 [Trametinib] (partner 0.02 µM)
Outline: as §1

[2] = compound: C[C@@]1(C(=O)Nc2ccc(F)nc2)CCCN1c1nc(Nc2cc(C3CC3)n[nH]2)c2cccn2n1 + COc1cc2c(Oc3ccc(NC(=O)C4(C(=O)Nc5ccc(F)cc5)CC4)cc3F)ccnc2cc1OCCCN1CCOCC1 [Foretinib] (partner 0.25 µM)
Outline: as §1

[3] = compound: C[C@@]1(C(=O)Nc2ccc(F)nc2)CCCN1c1nc(Nc2cc(C3CC3)n[nH]2)c2cccn2n1 + CS(=O)(=O)N1CCN(Cc2cc3nc(-c4cccc5[nH]ncc45)nc(N4CCOCC4)c3s2)CC1 [Pictilisib] (partner 1 µM)
Outline: as §1

Cell Line	relative viability (Motesanib + Dasatinib; first compound 0.01 µM)	relative viability (Motesanib + Dasatinib; first compound 0.03162 µM)	relative viability (Motesanib + Dasatinib; first compound 0.1 µM)	relative viability (Motesanib + Dasatinib; first compound 0.3162 µM)	relative viability (Motesanib + Dasatinib; first compound 1 µM)	relative viability ([1]; first compound 0.04 µM)	relative viability ([1]; first compound 0.1265 µM)	relative viability ([1]; first compound 0.4 µM)	relative viability ([1]; first compound 1.265 µM)	relative viability ([2]; first compound 0.04 µM)	relative viability ([2]; first compound 0.1265 µM)	relative viability ([2]; first compound 0.4 µM)	relative viability ([2]; first compound 1.265 µM)	relative viability ([3]; first compound 0.04 µM)	relative viability ([3]; first compound 0.1265 µM)	relative viability ([3]; first compound 0.4 µM)	relative viability ([3]; first compound 1.265 µM)
RERF-LC-KJ	0.92	0.803	0.806	0.811	0.839	0.84	0.665	0.639	0.685	0.815	0.777	0.659	0.714	0.477	0.44	0.228	0.494
NCI-H23	0.881	0.737	0.662	0.892	0.746	0.233	0.199	0.178	0.252	0.591	0.539	0.622	0.914	0.583	0.371	0.396	0.342
HCC-366	0.666	0.553	0.552	0.631	0.808	0.4	0.197	0.194	0.178	0.957	0.922	0.9	1.07	0.105	0.104	0.101	0.12
EMC-BAC-2	0.292	0.34	0.342	0.339	0.303	0.801	0.533	0.443	0.558	0.849	0.721	0.327	0.574	0.514	0.498	0.358	0.495
NCI-H2405	–	0.196	0.232	0.283	0.208	0.461	0.382	0.353	0.381	0.866	0.818	0.742	0.77	0.391	0.357	0.37	0.296
NCI-H358	0.14	0.155	0.133	0.2	0.158	0.129	0.106	0.112	0.101	0.471	0.385	0.202	0.183	0.259	0.237	0.173	0.277
NCI-H1944	0.205	0.215	0.25	0.225	0.231	0.352	0.363	0.284	0.384	0.764	0.676	0.496	0.649	0.29	0.323	0.283	0.316
EPLC-272H	0.344	0.405	–	0.421	0.287	0.266	0.252	0.234	0.231	0.57	–	0.558	0.796	0.251	0.18	0.168	0.174
NCI-H1915	0.32	0.329	0.303	0.312	0.279	0.316	0.261	0.272	0.338	1.11	1.04	1.04	1.18	0.948	1.04	0.894	0.863

Source: the supplement of paper PMC10307832
